From ChEMBL document CHEMBL5303765, “Data for DCP probe BAY-7081” (2023)
Active and inactive are the calls of the source. The rule behind the calls is not given here.

Tests used:
[1] = target: High affinity cGMP-specific 3',5'-cyclic phosphodiesterase 9A (Mus musculus, UniProt O70628); assay: Cellular PDE9A assay; type: functional
[2] = target: Ribosomal protein S6 kinase alpha-5 (Homo sapiens) (UniProt O75582); assay: RPS6KA5 SGC Tm panel (DSF); conditions: for ΔTm: Compound concentration 10.0 uM
Chain of Ribosomal protein S6 kinase alpha-5 (Homo sapiens) (O75582 whole entry, looked up): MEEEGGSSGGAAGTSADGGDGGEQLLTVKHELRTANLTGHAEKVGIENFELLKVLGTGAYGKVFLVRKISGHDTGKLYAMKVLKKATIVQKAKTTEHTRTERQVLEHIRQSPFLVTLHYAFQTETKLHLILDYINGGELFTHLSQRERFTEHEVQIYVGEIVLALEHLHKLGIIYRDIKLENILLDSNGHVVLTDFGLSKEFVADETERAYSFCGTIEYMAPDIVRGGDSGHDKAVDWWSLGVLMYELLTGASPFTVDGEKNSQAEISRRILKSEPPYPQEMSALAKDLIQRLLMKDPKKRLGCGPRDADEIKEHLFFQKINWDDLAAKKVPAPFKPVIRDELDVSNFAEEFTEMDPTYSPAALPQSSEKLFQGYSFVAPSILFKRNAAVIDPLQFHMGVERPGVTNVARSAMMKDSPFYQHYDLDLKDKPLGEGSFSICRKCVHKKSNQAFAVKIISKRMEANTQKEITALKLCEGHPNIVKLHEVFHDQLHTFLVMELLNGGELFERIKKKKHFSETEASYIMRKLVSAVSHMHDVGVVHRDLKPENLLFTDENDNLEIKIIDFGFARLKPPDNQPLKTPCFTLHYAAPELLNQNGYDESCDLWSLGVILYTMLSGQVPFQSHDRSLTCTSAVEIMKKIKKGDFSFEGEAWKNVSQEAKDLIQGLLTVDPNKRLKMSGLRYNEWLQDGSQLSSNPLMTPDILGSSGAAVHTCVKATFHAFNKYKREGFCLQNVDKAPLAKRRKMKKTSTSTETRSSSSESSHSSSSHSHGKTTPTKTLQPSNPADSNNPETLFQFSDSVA

[3] = target: Dual specificity protein kinase CLK1 (Homo sapiens) (UniProt P49759); assay: CLK1 SGC Tm panel (DSF); conditions: for ΔTm: Compound concentration 10.0 uM
Chain of Dual specificity protein kinase CLK1 (Homo sapiens) (P49759 whole entry, looked up): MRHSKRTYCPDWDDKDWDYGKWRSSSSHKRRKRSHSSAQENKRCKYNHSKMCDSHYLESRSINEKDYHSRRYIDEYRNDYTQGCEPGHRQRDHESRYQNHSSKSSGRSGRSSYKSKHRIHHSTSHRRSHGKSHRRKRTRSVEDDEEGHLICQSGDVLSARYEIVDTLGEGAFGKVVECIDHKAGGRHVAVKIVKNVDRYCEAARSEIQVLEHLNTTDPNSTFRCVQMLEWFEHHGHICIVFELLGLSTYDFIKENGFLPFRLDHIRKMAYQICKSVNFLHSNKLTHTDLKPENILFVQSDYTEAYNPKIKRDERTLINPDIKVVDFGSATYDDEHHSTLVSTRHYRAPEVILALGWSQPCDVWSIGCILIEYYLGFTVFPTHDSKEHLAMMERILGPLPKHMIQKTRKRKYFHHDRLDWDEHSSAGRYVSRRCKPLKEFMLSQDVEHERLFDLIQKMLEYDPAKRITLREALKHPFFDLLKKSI

[4] = target: T1, Serine/threonine-protein kinase PLK4 (Homo sapiens) (UniProt O00444); assay: PLK4 SGC Tm panel (DSF); conditions: for ΔTm: Compound concentration 10.0 uM
T1 sequence (whole entry): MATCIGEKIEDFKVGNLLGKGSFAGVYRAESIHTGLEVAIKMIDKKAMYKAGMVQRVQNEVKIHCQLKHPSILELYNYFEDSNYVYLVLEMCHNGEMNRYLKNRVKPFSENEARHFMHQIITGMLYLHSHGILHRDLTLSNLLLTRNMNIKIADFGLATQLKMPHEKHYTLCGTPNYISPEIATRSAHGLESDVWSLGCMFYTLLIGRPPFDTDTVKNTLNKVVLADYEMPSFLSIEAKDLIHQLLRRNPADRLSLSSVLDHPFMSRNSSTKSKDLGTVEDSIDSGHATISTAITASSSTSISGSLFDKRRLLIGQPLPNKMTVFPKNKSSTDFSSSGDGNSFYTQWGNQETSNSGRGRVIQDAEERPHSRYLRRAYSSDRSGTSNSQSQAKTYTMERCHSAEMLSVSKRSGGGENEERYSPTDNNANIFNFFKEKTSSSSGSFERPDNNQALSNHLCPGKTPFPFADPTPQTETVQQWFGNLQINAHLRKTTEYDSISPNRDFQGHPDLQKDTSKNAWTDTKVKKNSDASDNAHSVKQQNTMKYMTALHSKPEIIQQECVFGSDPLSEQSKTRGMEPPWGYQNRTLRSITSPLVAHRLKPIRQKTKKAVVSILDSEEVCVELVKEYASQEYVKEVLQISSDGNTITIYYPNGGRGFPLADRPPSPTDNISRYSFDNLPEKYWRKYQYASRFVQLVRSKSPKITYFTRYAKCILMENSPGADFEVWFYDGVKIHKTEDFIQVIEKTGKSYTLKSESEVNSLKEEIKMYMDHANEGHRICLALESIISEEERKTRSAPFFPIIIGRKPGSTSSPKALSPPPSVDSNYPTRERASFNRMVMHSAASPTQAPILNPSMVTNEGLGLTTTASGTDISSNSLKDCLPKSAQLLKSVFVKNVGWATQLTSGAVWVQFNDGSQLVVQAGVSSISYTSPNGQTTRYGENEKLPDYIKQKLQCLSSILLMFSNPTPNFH

[5] = target: Dual specificity mitogen-activated protein kinase kinase 1 (Homo sapiens) (UniProt Q02750); assay: MAP2K1 SGC Tm panel (DSF); conditions: for ΔTm: Compound concentration 10.0 uM
Chain of Dual specificity mitogen-activated protein kinase kinase 1 (Homo sapiens) (Q02750 whole entry): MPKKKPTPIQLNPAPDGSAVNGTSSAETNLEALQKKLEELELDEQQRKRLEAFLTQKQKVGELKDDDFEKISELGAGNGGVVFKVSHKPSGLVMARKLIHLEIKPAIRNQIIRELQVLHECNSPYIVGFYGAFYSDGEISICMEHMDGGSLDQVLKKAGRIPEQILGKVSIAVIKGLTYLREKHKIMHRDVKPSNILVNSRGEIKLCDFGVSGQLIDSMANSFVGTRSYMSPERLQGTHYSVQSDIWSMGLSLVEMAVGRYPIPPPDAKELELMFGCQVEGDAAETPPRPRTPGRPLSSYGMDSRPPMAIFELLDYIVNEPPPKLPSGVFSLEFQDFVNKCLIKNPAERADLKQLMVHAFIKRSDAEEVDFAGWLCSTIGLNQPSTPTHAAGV

[6] = target: AP2-associated protein kinase 1 (Homo sapiens) (UniProt Q2M2I8); assay: AAK1 SGC Tm panel (DSF); conditions: for ΔTm: Compound concentration 10.0 uM
[7] = target: Serine/threonine-protein kinase OSR1 (Homo sapiens) (UniProt O95747); assay: OSR1 SGC Tm panel (DSF); conditions: for ΔTm: Compound concentration 10.0 uM
Chain of Serine/threonine-protein kinase OSR1 (Homo sapiens) (O95747 2-527 limits assumed): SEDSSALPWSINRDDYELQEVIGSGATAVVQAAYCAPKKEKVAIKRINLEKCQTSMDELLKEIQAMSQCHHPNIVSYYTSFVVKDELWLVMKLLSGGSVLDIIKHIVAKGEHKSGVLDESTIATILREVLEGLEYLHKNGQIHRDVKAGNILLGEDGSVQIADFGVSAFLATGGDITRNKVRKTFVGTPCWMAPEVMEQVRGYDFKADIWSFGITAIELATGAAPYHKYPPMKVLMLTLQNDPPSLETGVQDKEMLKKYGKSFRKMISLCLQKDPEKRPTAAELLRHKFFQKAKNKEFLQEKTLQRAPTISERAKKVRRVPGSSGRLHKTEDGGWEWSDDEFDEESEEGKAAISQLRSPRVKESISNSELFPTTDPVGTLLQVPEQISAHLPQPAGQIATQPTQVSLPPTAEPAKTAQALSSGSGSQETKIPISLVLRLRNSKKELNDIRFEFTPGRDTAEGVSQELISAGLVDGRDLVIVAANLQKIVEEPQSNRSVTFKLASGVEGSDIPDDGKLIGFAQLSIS

[8] = target: Ephrin type-A receptor 7 (Homo sapiens) (UniProt Q15375); assay: EPHA7 SGC Tm panel (DSF); conditions: for ΔTm: Compound concentration 10.0 uM
[9] = target: T2, Myotonin-protein kinase (Homo sapiens) (UniProt Q09013); assay: DMPK1 SGC Tm panel (DSF); conditions: for ΔTm: Compound concentration 10.0 uM
T2 sequence (whole entry): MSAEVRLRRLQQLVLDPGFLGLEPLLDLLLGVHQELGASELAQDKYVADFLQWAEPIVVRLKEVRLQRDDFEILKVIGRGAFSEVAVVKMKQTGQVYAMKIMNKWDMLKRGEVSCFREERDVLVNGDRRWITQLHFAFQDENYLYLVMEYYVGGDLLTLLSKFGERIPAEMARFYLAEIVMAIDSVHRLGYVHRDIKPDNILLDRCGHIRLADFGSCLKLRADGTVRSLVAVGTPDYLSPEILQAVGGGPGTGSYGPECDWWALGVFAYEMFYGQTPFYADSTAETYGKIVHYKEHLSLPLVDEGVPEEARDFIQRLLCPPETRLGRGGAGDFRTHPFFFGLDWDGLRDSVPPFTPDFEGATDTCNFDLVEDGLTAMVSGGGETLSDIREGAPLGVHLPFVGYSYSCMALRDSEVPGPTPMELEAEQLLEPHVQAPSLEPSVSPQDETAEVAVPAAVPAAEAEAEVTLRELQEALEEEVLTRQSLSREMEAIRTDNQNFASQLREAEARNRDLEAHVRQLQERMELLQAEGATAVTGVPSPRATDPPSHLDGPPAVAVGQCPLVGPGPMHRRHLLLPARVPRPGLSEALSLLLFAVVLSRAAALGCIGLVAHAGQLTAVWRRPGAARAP

[10] = target: T3, Serine/threonine-protein kinase ULK3 (Homo sapiens) (UniProt Q6PHR2); assay: ULK3 SGC Tm panel (DSF); conditions: for ΔTm: Compound concentration 10.0 uM
T3 sequence (whole entry): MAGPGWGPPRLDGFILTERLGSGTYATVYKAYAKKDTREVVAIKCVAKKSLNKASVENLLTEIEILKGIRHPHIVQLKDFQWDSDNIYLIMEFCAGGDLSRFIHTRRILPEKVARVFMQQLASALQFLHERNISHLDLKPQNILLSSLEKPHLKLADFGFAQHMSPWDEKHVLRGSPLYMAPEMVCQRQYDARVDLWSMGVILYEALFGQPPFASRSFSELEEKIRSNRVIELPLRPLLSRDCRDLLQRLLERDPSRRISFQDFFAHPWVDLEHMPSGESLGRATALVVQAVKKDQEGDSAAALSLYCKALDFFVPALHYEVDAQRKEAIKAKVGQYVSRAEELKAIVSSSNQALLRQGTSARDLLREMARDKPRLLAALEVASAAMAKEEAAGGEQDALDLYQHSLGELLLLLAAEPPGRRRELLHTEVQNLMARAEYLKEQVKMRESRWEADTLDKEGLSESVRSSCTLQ

[11] = target: SRSF protein kinase 1 (Homo sapiens) (UniProt Q96SB4); assay: SRPK1 SGC Tm panel (DSF); conditions: for ΔTm: Compound concentration 10.0 uM
Chain of SRSF protein kinase 1 (Homo sapiens) (Q96SB4 whole entry): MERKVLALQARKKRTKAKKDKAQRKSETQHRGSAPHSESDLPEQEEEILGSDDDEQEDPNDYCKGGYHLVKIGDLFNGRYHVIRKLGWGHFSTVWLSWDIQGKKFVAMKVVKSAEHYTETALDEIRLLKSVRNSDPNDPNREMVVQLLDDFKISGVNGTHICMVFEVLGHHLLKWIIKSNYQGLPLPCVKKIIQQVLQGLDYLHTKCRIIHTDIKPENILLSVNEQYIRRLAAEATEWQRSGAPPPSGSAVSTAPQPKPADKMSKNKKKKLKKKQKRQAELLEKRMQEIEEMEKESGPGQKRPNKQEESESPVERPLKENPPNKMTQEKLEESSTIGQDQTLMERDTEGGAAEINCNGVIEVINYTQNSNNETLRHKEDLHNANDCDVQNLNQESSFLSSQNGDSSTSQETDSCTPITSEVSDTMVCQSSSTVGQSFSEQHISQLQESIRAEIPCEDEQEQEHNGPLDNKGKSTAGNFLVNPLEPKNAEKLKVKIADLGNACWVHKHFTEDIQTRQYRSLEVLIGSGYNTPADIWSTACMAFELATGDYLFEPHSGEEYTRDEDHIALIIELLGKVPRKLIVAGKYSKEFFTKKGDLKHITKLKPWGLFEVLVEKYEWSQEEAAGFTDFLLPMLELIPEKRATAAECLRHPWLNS

[12] = target: STE20-like serine/threonine-protein kinase (Homo sapiens) (UniProt Q9H2G2); assay: SLK SGC Tm panel (DSF); conditions: for ΔTm: Compound concentration 10.0 uM
Chain of STE20-like serine/threonine-protein kinase (Homo sapiens) (Q9H2G2 whole entry, looked up): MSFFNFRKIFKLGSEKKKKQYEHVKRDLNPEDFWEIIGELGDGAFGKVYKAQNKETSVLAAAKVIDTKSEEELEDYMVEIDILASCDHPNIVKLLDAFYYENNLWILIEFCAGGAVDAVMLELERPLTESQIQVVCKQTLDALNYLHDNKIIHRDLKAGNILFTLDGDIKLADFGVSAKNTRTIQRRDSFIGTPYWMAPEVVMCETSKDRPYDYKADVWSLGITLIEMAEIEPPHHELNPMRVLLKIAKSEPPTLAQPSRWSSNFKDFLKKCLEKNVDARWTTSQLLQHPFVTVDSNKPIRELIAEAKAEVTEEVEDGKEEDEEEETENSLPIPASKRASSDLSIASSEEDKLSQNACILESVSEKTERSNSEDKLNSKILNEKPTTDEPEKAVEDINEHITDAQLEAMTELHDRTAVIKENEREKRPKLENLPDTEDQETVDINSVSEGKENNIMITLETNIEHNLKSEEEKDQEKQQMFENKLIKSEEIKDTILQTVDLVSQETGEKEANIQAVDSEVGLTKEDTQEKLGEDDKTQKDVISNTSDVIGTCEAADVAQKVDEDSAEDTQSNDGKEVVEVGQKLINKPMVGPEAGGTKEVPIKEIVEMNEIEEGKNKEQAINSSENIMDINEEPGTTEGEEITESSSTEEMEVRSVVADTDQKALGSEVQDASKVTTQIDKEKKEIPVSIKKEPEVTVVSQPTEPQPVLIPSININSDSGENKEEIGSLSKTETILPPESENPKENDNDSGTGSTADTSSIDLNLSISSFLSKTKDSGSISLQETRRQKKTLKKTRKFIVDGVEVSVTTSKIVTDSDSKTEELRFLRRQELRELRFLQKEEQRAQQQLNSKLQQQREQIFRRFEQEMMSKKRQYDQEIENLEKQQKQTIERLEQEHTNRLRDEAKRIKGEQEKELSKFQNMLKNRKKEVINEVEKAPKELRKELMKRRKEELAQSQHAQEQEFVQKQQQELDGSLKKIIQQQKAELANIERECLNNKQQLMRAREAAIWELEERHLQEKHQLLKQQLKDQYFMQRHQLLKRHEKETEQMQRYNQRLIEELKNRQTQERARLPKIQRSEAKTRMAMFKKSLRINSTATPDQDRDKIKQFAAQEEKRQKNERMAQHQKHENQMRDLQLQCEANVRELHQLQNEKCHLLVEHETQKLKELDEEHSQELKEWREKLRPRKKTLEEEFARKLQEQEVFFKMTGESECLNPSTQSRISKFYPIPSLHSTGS

[13] = target: Sodium-dependent noradrenaline transporter (Homo sapiens) (UniProt P23975); conditions: Compound concentration 10.0 uM
Chain of Sodium-dependent noradrenaline transporter (Homo sapiens) (P23975 whole entry): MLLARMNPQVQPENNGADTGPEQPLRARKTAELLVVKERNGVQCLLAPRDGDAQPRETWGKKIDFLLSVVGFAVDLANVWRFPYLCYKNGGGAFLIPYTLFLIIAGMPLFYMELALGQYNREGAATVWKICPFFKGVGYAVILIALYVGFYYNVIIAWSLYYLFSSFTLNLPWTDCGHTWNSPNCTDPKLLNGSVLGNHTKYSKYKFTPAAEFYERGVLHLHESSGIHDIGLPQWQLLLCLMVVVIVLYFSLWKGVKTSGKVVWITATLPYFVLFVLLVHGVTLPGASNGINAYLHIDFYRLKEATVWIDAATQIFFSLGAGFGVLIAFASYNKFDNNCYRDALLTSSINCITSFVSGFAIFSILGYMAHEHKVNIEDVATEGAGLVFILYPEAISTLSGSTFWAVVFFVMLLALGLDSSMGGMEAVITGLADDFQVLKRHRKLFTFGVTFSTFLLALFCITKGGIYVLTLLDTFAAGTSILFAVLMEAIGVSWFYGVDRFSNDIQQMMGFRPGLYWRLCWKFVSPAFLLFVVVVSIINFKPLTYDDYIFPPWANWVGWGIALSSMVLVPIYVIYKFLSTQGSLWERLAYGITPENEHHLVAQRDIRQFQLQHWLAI

[14] = target: Cyclin-dependent kinase 2 (Homo sapiens) (UniProt P24941); assay: CDK2 SGC Tm panel (DSF); conditions: for ΔTm: Compound concentration 10.0 uM
[15] = target: Bromodomain-containing protein 4 (Homo sapiens) (UniProt O60885); assay: BRD4 SGC Tm panel (DSF); conditions: for ΔTm: Compound concentration 10.0 uM

SMILES: CCC[C@H]1CNCc2c1[nH]c(=O)c(C#N)c2N1CCC2(CC1)CC2
- EC50 [1]: 0.995 µM (active)
- delta Tm Staurosporine positive control [2]: 13.8
- ΔTm [2]: -0.275
- delta Tm Staurosporine positive control [3]: 11.4
- ΔTm [3]: -0.548
- delta Tm Staurosporine positive control [4]: 19.7
- ΔTm [4]: -0.34
- delta Tm Staurosporine positive control [5]: 6.3
- ΔTm [5]: -0.252
- delta Tm Staurosporine positive control [6]: 12.4
- ΔTm [6]: -0.482
- delta Tm Staurosporine positive control [7]: 8.41
- ΔTm [7]: -0.0871
- delta Tm Staurosporine positive control [8]: 12.1
- ΔTm [8]: -0.592
- delta Tm Staurosporine positive control [9]: 9.38
- ΔTm [9]: -0.0275
- delta Tm Staurosporine positive control [10]: 19.1
- ΔTm [10]: -0.0592
- delta Tm Staurosporine positive control [11]: 7.17
- ΔTm [11]: -0.269
- delta Tm Staurosporine positive control [12]: 15.4
- ΔTm [12]: -0.579
- inhibition [13]: -3.72%
- delta Tm Staurosporine positive control [14]: 14.3
- ΔTm [14]: -0.589
- delta Tm Staurosporine positive control [15]: 2.04
- ΔTm [15]: 0.19

SMILES: CCC[C@@H]1CNCc2c1[nH]c(=O)c(C#N)c2N1CCC2(CC1)CC2
- EC50 [1]: > 10 µM (not active)
- delta Tm Staurosporine positive control [2]: 13.8
- ΔTm [2]: -0.505
- delta Tm Staurosporine positive control [3]: 11.4
- ΔTm [3]: -0.372
- delta Tm Staurosporine positive control [4]: 19.7
- ΔTm [4]: -0.315
- delta Tm Staurosporine positive control [5]: 6.3
- ΔTm [5]: -0.203
- delta Tm Staurosporine positive control [6]: 12.4
- ΔTm [6]: -0.478
- delta Tm Staurosporine positive control [7]: 8.41
- ΔTm [7]: 0.204
- delta Tm Staurosporine positive control [8]: 12.1
- ΔTm [8]: -0.583
- delta Tm Staurosporine positive control [9]: 9.38
- ΔTm [9]: -0.138
- delta Tm Staurosporine positive control [10]: 19.1
- ΔTm [10]: -0.0429
- delta Tm Staurosporine positive control [11]: 7.17
- ΔTm [11]: -0.188
- delta Tm Staurosporine positive control [12]: 15.4
- ΔTm [12]: -1.06
- inhibition [13]: -7.72%
- delta Tm Staurosporine positive control [14]: 14.3
- ΔTm [14]: -0.673
- delta Tm Staurosporine positive control [15]: 2.04
- ΔTm [15]: 0.857
